Laboratory results taken from patent publication US20250108119A1, “NOVEL STEROID PAYLOADS, STEROID LINKERS, ADCs CONTAINING AND USE THEREOF” (IMMUNEXT, INC., priority 2021, published 2025).

Tests used:
[1] = test system: FKBP5; test: FKBP5 transcription in peritoneal resident macrophages (PRM) and spleen cells after in vivo treatment; set-up: species or system hVISTA mice; details: linker payloads as anti-VISTA conjugates
[2] = test system: peritoneal resident macrophages (PRM); test: In vivo treatment/ex vivo PRM activation, TNFα and IL-6 in supernatant; set-up: species or system hVISTA mice
Method: Based thereon we developed a model to allow us to evaluate long-term anti-inflammatory impact of ADC on specific target populations, such as PRMs. […] In the absence of GC treatment, after 2h PRMs become highly activated as shown by increases in cytokine production. […] The objective of these studies was to evaluate the efficacy and pharmacodynamic range of INX human VISTA antibodies conjugated to a glucocorticoid payload as compared to free Dex.
After euthanasia, mice were injected in the peritoneal cavity with 7 ml of PBS/0.5% BSA/2 mM EDTA. After a brief massage of the peritoneum, a small incision was performed and the peritoneal lavage collected. PRM were isolated using negative selection (Miltenyi kit, ref 130-110-434). Spleen were dissected and dissociated mechanically; monocytes were isolated using […] (Stem Cell, EasySep™ Mouse CD11b Positive Selection Kit II).
PRMs were resuspended in RPMI 1640 with 10% FBS, 10 mM Hepes, Penicillin/Streptomycin and glutamine and 100,000 cells were plated per well in a 96-well tissue culture plate. Supernatants were collected at 2 and 24h post plating and stored at −80° C. […]
• BioLegend (cat #430904) ELISA MAX Deluxe Set Mouse TNF-α • BioLegend (cat #431304) ELISA MAX Deluxe Set Mouse IL-6
ELISAs were conducted following the manufacturer's included protocol.

[3] = test system: LPS stimulated human PBMCs; test: LPS stimulated human PBMC, IL-1β and IL-6 ELISA; format: cell-based
Method in brief: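 Human PBMC (1-2 healthy donors), 150,000 cells/well, treated with test agents at 1,000 nM down to 1 nM or 0.2 nM, in duplicate. LPS at 1 ng/ml added immediately after free payload or 4 h after conjugates; IL-1β and IL-6 in supernatants measured by ELISA.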

[4] = Linker payload and released payload in serum and peripheral blood leukocytes (MS); format: in vivo, cynomolgus monkey; details: INX234P 15 mg/Kg i.v., analyte as labelled
Method: MS quantification was performed by Quintara Discovery on cell pellets and on serum.
Briefly, cell pellets were suspended with 100 μL of 20% methanol.
Normalization of the data to cell volume (ng/ml) was done by first calculating the cell numbers based on the PBL or WBC hematological count and the fixed volume for each sample processed for MS. We then converted to volume by using the arbitrary mean corpuscular volume (MCV) of […] per cell that is the most frequently adopted (3).
Each plasma sample was extracted with acetonitrile: methanol containing internal standard (Verapamil).

[5] = test system: FKBP5; test: FKBP5 transcription in isolated human monocytes, B cells and Tregs; format: cell-based; details: Experiment 1: 20 nM payload, 1 day
From the text: Monocytes or B cells were isolated from healthy donor blood samples and treated with free steroid, anti-VISTA conjugated steroid, or conjugated isotype control. RNA was isolated, and change in FKBP5 transcript level assessed by qPCR.
The various immune populations were isolated using different cell isolation kits and following manufacturer instructions: • EasySep Human monocyte enrichment kit without CD16 depletion (StemCell cat #19058) • Pan B cell isolation kit, human (Miltenyi Biotec, 130-101-638). • EasySep™ Human CD4+CD127 low CD49d-regulatory T cell enrichment Kit (StemCell cat #19232)
Monocytes, B cells or Tregs were plated (from single donors) at 2×10^6 cells per well in a 12-well plate in RPMI, 10% human AB serum, 10 mM Hepes, 1× Penicillin/Streptomycin/Glutamine.
For single dose experiments, cells were treated with 20 nM free J payload or INX-SM-3 payload or the molar payload equivalent of huIgG1si J, INX201J or INX231P (the linked form of INX-SM-3). […]
After one wash with PBS, RNA was isolated from cell pellets using either the RNeasy Plus Mini kit (Qiagen, PN: 74136) or NucleoSpin RNA Plus (Macherey-Nagel #740984.250). […] RNA concentration was assessed by UV spectroscopy using a Nanodrop 2000. […]
Quantitative Real-Time PCR was done using Taqman master mix 2× kit (#4369016) and run on a QuantStudio3 from Applied Biosystem. […]

[6] = linker/payloads as anti-VISTA conjugates

| Compound | FKBP5 induction when dosed 14 days early (conclusions) [1] | controlling cytokine response in PRM when dosed 14 days early (conclusions) [2, 6] | potency of conjugated linker payloads over INX J (conclusions) [3] | other results |
| --- | --- | --- | --- | --- |
| C[C@]12C=CC(=O)C=C1CC[C@@H]1[C@@H]2[C@@H](O)C[C@@]2(C)[C@H]1C[C@H]1O[C@@H](c3ccc(OC4CC5(CC(NC(=O)[C@H](CCC(=O)O)NC(=O)CNC(=O)CBr)C5)C4)cc3F)O[C@]12C(=O)CO (stereo partly drawn) [INX A5, (S)-4-(2-(2-bromoacetamido)acetamido)-5-((6-(3-fluoro-4-((6aR,6bS,7S,8aS,8bS,10R,11aR,12aS,12bS)-7-hydroxy-8b-(2-hydroxyacetyl)-6a,8a-dimethyl-4-oxo-2,4,6a,6b,7,8,8a,8b,11a,12,12a,12b-dodecahydro-1H-naphtho[2′,1′:4,5]indeno[1,2-d][1,3]dioxol-10-yl)phenoxy)spiro[3.3]heptan-2-yl)amino)-5-oxopentanoic acid] | still display significant potency when dosed 14 days early in regard to FKBP5 induction | significant potency in controlling cytokine response in PRM when dosed 14 days early | enhanced potency | – |
| C[C@]12C=CC(=O)C=C1CC[C@@H]1[C@@H]2[C@@H](O)C[C@@]2(C)[C@H]1C[C@H]1O[C@@H](c3ccc(CC4CC5(C4)CC(NC(=O)[C@H](CC(N)=O)NC(=O)CNC(=O)CBr)C5)cc3)O[C@]12C(=O)CO (stereo partly drawn) [INX A11, (S)-2-(2-(2-bromoacetamido)acetamido)-N1-(6-(4-((6aR,6bS,7S,8aS,8bS,10R,11aR,12aS,12bS)-7-hydroxy-8b-(2-hydroxyacetyl)-6a,8a-dimethyl-4-oxo-2,4,6a,6b,7,8,8a,8b,11a,12,12a,12b-dodecahydro-1H-naphtho[2′,1′:4,5]indeno[1,2-d][1,3]dioxol-10-yl)benzyl)spiro[3.3]heptan-2-yl) succinamide] | still display significant potency when dosed 14 days early in regard to FKBP5 induction | significant potency in controlling cytokine response in PRM when dosed 14 days early | enhanced potency | – |
| C[C@]12C=CC(=O)C=C1CC[C@@H]1[C@@H]2[C@@H](O)C[C@@]2(C)[C@H]1C[C@H]1O[C@@H](c3ccc(CC45CC(NC(=O)[C@H](CCC(=O)O)NC(=O)CNC(=O)CBr)(C4)C5)cc3)O[C@]12C(=O)COP(=O)(O)O [INX T, (S)-4-(2-(2-bromoacetamido)acetamido)-5-((3-(4-((6aR,6bS,7S,8aS,8bS,10R,11aR,12aS,12bS)-7-hydroxy-6a,8a-dimethyl-4-oxo-8b-(2-(phosphonooxy)acetyl)-2,4,6a,6b,7,8,8a,8b,11a,12,12a,12b-dodecahydro-1H-naphtho[2′,1′:4,5]indeno[1,2-d][1,3]dioxol-10-yl)benzyl)bicyclo[1.1.1]pentan-1-yl)amino)-5-oxopentanoic acid] | still display significant potency when dosed 14 days early in regard to FKBP5 induction | significant potency in controlling cytokine response in PRM when dosed 14 days early | – | FKBP5 induction in splenic cells (conclusions) ([1]; day 1, 7, 14): Significant FKBP5 induction is seen at day 1, 7, and 14 in splenic cells |
| C[C@]12C=CC(=O)C=C1CC[C@@H]1[C@@H]2[C@@H](O)C[C@@]2(C)[C@H]1C[C@H]1O[C@@H](c3ccc(CC45CC(NC(=O)[C@H](CCCCN)NC(=O)CNC(=O)CBr)(C4)C5)cc3)O[C@]12C(=O)CO [INX W, (S)-6-amino-2-(2-(2-bromoacetamido)acetamido)-N-(3-(4-((6aR,6bS,7S,8aS,8bS,10R,11aR,12aS,12bS)-7-hydroxy-8b-(2-hydroxyacetyl)-6a,8a-dimethyl-4-oxo-2,4,6a,6b,7,8,8a,8b,11a,12,12a,12b-dodecahydro-1H-naphtho[2′,1′:4,5]indeno[1,2-d][1,3]dioxol-10-yl)benzyl)bicycle[1.1.1]pentan-1-yl) hexanamide] | still display significant potency when dosed 14 days early in regard to FKBP5 induction | – | – | preventing ex vivo induction of TNFα and IL-6 in PRM ([2]; Experiment 9: linker payloads as conjugates, 7 days post 0.2 mg/Kg of GC payload, supernatant 24h): remarkable long-term potency in controlling cytokine responses; potency in PRM cytokine model when dosed 7 days early (conclusions) [2, 6]: remarkably more potent than payloads INX P and INX R when dosed 7 days early |
| C[C@]12C=CC(=O)C=C1CC[C@@H]1[C@@H]2[C@@H](O)C[C@@]2(C)[C@H]1C[C@H]1O[C@@H](c3ccc(CC45CC(NC(=O)[C@H](CCC(=O)O)NC(=O)CNC(=O)CSC[C@H](N)C(=O)O)(C4)C5)cc3)O[C@]12C(=O)CO [P-cys, (S)-4-(2-(2-(((R)-2-amino-2-carboxyethyl)thio)acetamido)acetamido)-5-((3-(4-((6aR,6bS,7S,8aS,8bS,10R,11aR,12aS,12bS)-7-hydroxy-8b-(2-hydroxyacetyl)-6a,8a-dimethyl-4-oxo-2,4,6a,6b,7,8,8a,8b,11a,12,12a,12b-dodecahydro-1H-naphtho[2′,1′:4,5]indeno[1,2-d][1,3]dioxol-10-yl)benzyl)bicyclo[1.1.1]pentan-1-yl)amino)-5-oxopentanoic acid] | – | – | – | serum level by day 8 (192 hr) post injection [4]: below detection; time of peak concentration in serum [4]: ~12 h; Kp ([4]; cynomolgus monkey, in vivo, read-out: intracellular (PBL) levels as compared to serum): 100 |
| C[C@]12C=CC(=O)C=C1CC[C@@H]1[C@@H]2[C@@H](O)C[C@@]2(C)[C@H]1C[C@H]1O[C@@H](c3ccc(Cc4cccc(N)c4)cc3)O[C@]12C(=O)CO [free J payload, reference compound] | – | – | – | FKBP5 transcription in monocytes and B cells [5]: robust increase in FKBP5 transcription was observed with free J payload in both monocytes and B cells |
